Measurements: publication PMC13210772, “Dual FLT3/MAPK14 Proteolysis-Targeting Chimera (PROTAC) Induces Potent Acute Myeloid Leukemia Cell Death” (Pharmaceuticals, 2026)

Columns and labels:
Assay in all cases: NanoBRET CELLinib128
Format in all cases: binding
[1] = biological target: T1, SIK1 (Homo sapiens, UniProt P57059); conditions: 1 µM; 100% no effect, 0% complete tracer displacement
T1 construct: Full-length kinase ORF (Promega, Madison, WI, USA) cloned in frame with a NanoLuc-vector was transfected into HEK293T cells; host or cells: HEK293T
Experimental: (§1) To get an impression about the binding strength of the PROTAC MA191 and the reference inhibitor MA68 to other kinases besides FLT3-ITD the binding on a kinase panel of further 128 representative protein kinases at 1 μM concentration was tested using the NanoBRET^TM cellular target engagement assay (CELLinib128 assay, CELLinib GmbH, Frankfurt, Germany). […] In none of the 128 kinases MA191 was able to displace the tracer (inhibitor) used by more than 50%, Table S1, Supplementary Information).
(§2) The CELLinib128 assay was performed by CELLinib GmbH, Frankfurt (Germany) as described previously. In brief: Full-length kinase ORF (Promega, Madison, WI, USA) cloned in frame with a NanoLuc-vector was transfected into HEK293T cells in Opti-MEM without phenol red (Life Technologies, Carlsbad, CA, USA) at a density of 2 × 10^5 cells/mL using FuGENE HD (Promega, E2312) and proteins were allowed to express for 20 h. For CDKs, where indicated below, an excess of an activator without an NLuc-fusion was cotransfected. […] The system was allowed to equilibrate at 37 °C for 2 h and 5% CO2 prior to BRET measurements. For PKCs, a chemical activator PMA was added in a final concentration of 1 µM was added together with test compounds and tracers (Promega, V1171). To measure BRET, NanoBRET^TM NanoGlo substrate + extracellular NanoLuc inhibitor (Promega, N2160) were added as per the manufacturer’s protocol, and filtered luminescence was measured (450 nm BP filter (donor) and 610 nm LP filter (acceptor)). For the 1-shot test compounds, data were normalized to the tracer control and the background control or control compound plateau and an average and SD were calculated. […] For the control compounds competitive displacement data were normalized to the tracer Ctrl and the background Ctrl and then plotted and fitted using GraphPad Prism 10 software using a normalized 3-parameter curve fit with the following equation: Y = 100/(1 + 10^X−LogIC50).

[2] = biological target: T2, MLTK (Homo sapiens, UniProt Q9NYL2); conditions: 100% no effect, 0% complete tracer displacement, read-out: Tracer bound
T2 construct: Full-length kinase ORF (Promega, Madison, WI, USA) cloned in frame with a NanoLuc-vector was transfected into HEK293T cells; host or cells: HEK293T
T2 sequence (Q9NYL2 whole entry): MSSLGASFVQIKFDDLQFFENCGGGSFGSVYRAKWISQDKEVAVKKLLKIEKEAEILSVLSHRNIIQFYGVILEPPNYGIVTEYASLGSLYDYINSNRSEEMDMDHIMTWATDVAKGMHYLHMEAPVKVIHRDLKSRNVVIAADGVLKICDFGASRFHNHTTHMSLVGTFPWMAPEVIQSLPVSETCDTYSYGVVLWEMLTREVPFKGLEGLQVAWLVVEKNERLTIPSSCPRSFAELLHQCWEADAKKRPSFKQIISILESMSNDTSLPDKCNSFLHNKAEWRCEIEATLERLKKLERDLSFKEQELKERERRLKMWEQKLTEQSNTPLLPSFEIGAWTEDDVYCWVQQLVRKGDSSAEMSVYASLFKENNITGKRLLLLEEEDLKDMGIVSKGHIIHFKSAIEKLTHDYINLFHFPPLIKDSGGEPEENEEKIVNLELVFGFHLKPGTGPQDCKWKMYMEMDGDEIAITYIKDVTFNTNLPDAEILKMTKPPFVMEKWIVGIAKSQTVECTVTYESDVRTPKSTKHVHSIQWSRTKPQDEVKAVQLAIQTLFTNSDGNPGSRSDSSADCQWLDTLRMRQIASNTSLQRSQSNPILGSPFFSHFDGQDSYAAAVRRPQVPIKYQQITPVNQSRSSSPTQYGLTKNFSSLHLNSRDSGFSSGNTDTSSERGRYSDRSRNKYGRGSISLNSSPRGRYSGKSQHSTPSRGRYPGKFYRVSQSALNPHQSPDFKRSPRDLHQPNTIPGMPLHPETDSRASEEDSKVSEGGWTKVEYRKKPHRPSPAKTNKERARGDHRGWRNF
Experimental: as §1, §2

[3] = biological target: T3, AURKB (Homo sapiens, UniProt Q96GD4); conditions: 100% no effect, 0% complete tracer displacement, read-out: Tracer bound
T3 construct: Full-length kinase ORF (Promega, Madison, WI, USA) cloned in frame with a NanoLuc-vector was transfected into HEK293T cells; host or cells: HEK293T
T3 sequence (Q96GD4 whole entry): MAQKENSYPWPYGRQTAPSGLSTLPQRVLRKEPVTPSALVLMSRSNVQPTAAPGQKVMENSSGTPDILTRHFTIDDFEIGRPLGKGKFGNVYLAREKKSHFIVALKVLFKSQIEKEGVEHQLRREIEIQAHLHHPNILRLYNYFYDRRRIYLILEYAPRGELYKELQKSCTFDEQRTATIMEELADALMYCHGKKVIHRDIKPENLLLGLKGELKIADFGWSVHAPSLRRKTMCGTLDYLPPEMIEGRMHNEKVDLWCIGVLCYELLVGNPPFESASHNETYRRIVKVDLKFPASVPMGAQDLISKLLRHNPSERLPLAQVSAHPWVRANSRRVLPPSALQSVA
Experimental: as §1, §2

[4] = biological target: T4, MAP4K5 (Homo sapiens, UniProt Q9Y4K4); conditions: 100% no effect, 0% complete tracer displacement, read-out: Tracer bound
T4 construct: Full-length kinase ORF (Promega, Madison, WI, USA) cloned in frame with a NanoLuc-vector was transfected into HEK293T cells; host or cells: HEK293T
T4 sequence (Q9Y4K4 whole entry): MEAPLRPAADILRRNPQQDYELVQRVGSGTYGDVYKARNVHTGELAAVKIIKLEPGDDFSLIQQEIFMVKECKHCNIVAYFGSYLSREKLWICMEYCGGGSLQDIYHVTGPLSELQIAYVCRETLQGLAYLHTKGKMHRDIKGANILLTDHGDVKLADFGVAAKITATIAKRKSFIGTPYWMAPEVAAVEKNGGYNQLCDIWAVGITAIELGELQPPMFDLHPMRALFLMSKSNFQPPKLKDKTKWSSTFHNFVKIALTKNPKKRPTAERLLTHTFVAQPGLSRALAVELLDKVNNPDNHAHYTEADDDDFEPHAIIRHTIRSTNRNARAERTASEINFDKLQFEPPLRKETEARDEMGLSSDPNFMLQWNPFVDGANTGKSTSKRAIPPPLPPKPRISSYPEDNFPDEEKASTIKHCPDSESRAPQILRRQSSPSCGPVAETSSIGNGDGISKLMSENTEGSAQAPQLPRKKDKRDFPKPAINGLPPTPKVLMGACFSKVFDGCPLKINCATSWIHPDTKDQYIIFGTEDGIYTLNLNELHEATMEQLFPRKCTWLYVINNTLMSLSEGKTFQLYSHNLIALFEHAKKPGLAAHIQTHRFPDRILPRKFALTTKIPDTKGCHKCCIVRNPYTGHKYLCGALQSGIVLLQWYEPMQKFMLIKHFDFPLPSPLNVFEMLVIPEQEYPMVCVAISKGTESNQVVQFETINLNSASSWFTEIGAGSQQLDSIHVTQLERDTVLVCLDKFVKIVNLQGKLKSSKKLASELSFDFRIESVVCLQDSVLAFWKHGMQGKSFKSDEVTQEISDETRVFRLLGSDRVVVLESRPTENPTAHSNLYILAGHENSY
Experimental: as §1, §2

[5] = biological target: T5, HUNK (Homo sapiens, UniProt P57058); conditions: 100% no effect, 0% complete tracer displacement, read-out: Tracer bound
T5 construct: Full-length kinase ORF (Promega, Madison, WI, USA) cloned in frame with a NanoLuc-vector was transfected into HEK293T cells; host or cells: HEK293T
Experimental: as §1, §2

[6] = biological target: T6, PLK4 (Homo sapiens, UniProt O00444); conditions: 100% no effect, 0% complete tracer displacement, read-out: Tracer bound
T6 construct: Full-length kinase ORF (Promega, Madison, WI, USA) cloned in frame with a NanoLuc-vector was transfected into HEK293T cells; host or cells: HEK293T
Experimental: as §1, §2

[7] = biological target: T7, IRAK3 (Homo sapiens, UniProt Q9Y616); conditions: 100% no effect, 0% complete tracer displacement, read-out: Tracer bound
T7 construct: Full-length kinase ORF (Promega, Madison, WI, USA) cloned in frame with a NanoLuc-vector was transfected into HEK293T cells; host or cells: HEK293T
T7 sequence (Q9Y616 whole entry): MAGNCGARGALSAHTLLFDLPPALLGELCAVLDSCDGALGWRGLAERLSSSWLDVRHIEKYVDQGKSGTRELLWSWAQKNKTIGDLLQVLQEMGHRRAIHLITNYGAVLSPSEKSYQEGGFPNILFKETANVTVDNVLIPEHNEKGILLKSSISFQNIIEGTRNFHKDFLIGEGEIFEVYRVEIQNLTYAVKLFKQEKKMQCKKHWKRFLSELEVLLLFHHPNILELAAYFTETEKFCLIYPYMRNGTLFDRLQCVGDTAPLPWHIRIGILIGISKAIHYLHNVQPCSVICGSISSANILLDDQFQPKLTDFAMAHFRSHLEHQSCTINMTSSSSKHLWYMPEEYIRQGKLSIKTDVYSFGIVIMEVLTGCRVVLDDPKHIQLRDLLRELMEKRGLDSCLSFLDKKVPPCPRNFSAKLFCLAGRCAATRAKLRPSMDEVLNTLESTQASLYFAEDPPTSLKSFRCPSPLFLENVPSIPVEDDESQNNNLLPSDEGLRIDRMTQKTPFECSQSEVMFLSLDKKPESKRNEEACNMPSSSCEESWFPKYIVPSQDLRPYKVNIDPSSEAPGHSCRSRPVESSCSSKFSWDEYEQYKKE
Experimental: as §1, §2

[8] = biological target: T8, CDK3-CCNE1 (Homo sapiens, UniProt Q00526); conditions: 1 µM; 100% no effect, 0% complete tracer displacement
T8 construct: Full-length kinase ORF (Promega, Madison, WI, USA) cloned in frame with a NanoLuc-vector was transfected into HEK293T cells; host or cells: HEK293T
Experimental: as §1, §2

[9] = biological target: T9, PRKCD-PMA (Homo sapiens, UniProt Q05655); conditions: 100% no effect, 0% complete tracer displacement, read-out: Tracer bound
T9 construct: Full-length kinase ORF (Promega, Madison, WI, USA) cloned in frame with a NanoLuc-vector was transfected into HEK293T cells; host or cells: HEK293T
Experimental: as §1, §2

[10] = biological target: T10, PRKCQ-PMA (Homo sapiens, UniProt Q04759); conditions: 100% no effect, 0% complete tracer displacement, read-out: Tracer bound
T10 construct: Full-length kinase ORF (Promega, Madison, WI, USA) cloned in frame with a NanoLuc-vector was transfected into HEK293T cells; host or cells: HEK293T
Experimental: as §1, §2

[11] = biological target: T11, MAP3K9 (Homo sapiens, UniProt P80192); conditions: 100% no effect, 0% complete tracer displacement, read-out: Tracer bound
T11 construct: Full-length kinase ORF (Promega, Madison, WI, USA) cloned in frame with a NanoLuc-vector was transfected into HEK293T cells; host or cells: HEK293T
Experimental: as §1, §2

[12] = biological target: T12, AURKC (Homo sapiens, UniProt Q9UQB9); conditions: 100% no effect, 0% complete tracer displacement, read-out: Tracer bound
T12 construct: Full-length kinase ORF (Promega, Madison, WI, USA) cloned in frame with a NanoLuc-vector was transfected into HEK293T cells; host or cells: HEK293T
Experimental: as §1, §2

[13] = biological target: T13, EPHA6 (Homo sapiens, UniProt Q9UF33); conditions: 100% no effect, 0% complete tracer displacement, read-out: Tracer bound
T13 construct: Full-length kinase ORF (Promega, Madison, WI, USA) cloned in frame with a NanoLuc-vector was transfected into HEK293T cells; host or cells: HEK293T
Experimental: as §1, §2

[14] = biological target: T14, PAK6 (Homo sapiens, UniProt Q9NQU5); conditions: 100% no effect, 0% complete tracer displacement, read-out: Tracer bound
T14 construct: Full-length kinase ORF (Promega, Madison, WI, USA) cloned in frame with a NanoLuc-vector was transfected into HEK293T cells; host or cells: HEK293T
Experimental: as §1, §2

[15] = biological target: T15, SRMS (Homo sapiens, UniProt Q9H3Y6); conditions: 100% no effect, 0% complete tracer displacement, read-out: Tracer bound
T15 construct: Full-length kinase ORF (Promega, Madison, WI, USA) cloned in frame with a NanoLuc-vector was transfected into HEK293T cells; host or cells: HEK293T
T15 sequence (Q9H3Y6 whole entry): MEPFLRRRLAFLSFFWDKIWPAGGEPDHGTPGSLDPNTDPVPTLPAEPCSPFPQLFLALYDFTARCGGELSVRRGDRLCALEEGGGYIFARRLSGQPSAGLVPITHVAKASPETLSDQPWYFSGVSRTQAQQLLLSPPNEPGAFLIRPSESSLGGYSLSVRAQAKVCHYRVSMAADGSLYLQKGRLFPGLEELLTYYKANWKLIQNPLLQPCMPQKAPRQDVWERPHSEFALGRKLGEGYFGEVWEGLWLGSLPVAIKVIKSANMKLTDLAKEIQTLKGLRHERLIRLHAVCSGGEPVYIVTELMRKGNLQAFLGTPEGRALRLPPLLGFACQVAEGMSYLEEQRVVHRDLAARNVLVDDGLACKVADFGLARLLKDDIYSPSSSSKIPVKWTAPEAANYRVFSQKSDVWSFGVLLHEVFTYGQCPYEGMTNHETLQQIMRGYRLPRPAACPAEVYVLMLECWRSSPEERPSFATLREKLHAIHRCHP
Experimental: as §1, §2

[16] = biological target: T16, ERN1 (Homo sapiens, UniProt O75460); conditions: 100% no effect, 0% complete tracer displacement, read-out: Tracer bound
T16 construct: Full-length kinase ORF (Promega, Madison, WI, USA) cloned in frame with a NanoLuc-vector was transfected into HEK293T cells; host or cells: HEK293T
Experimental: as §1, §2

[17] = biological target: T17, PRKACB (Homo sapiens, UniProt P22694); conditions: 100% no effect, 0% complete tracer displacement, read-out: Tracer bound
T17 construct: Full-length kinase ORF (Promega, Madison, WI, USA) cloned in frame with a NanoLuc-vector was transfected into HEK293T cells; host or cells: HEK293T
Experimental: as §1, §2

[18] = biological target: T18, CSNK1G2 (Homo sapiens, UniProt P78368); conditions: 1 µM; 100% no effect, 0% complete tracer displacement
T18 construct: Full-length kinase ORF (Promega, Madison, WI, USA) cloned in frame with a NanoLuc-vector was transfected into HEK293T cells; host or cells: HEK293T
Experimental: as §1, §2

[19] = biological target: T19, CDK5-CDK5R2 (Homo sapiens, UniProt Q00535); conditions: 100% no effect, 0% complete tracer displacement, read-out: Tracer bound
T19 construct: Full-length kinase ORF (Promega, Madison, WI, USA) cloned in frame with a NanoLuc-vector was transfected into HEK293T cells; host or cells: HEK293T
Experimental: as §1, §2

[20] = biological target: T20, BRSK1 (Homo sapiens, UniProt Q8TDC3); conditions: 100% no effect, 0% complete tracer displacement, read-out: Tracer bound
T20 construct: Full-length kinase ORF (Promega, Madison, WI, USA) cloned in frame with a NanoLuc-vector was transfected into HEK293T cells; host or cells: HEK293T
Experimental: as §1, §2

[21] = biological target: T21, LIMK2 (Homo sapiens, UniProt P53671); conditions: 100% no effect, 0% complete tracer displacement, read-out: Tracer bound
T21 construct: Full-length kinase ORF (Promega, Madison, WI, USA) cloned in frame with a NanoLuc-vector was transfected into HEK293T cells; host or cells: HEK293T
Experimental: as §1, §2

[22] = biological target: T22, PHKG1 (Homo sapiens, UniProt Q16816); conditions: 100% no effect, 0% complete tracer displacement, read-out: Tracer bound
T22 construct: Full-length kinase ORF (Promega, Madison, WI, USA) cloned in frame with a NanoLuc-vector was transfected into HEK293T cells; host or cells: HEK293T
Experimental: as §1, §2

[23] = biological target: T23, FGFR1 (Homo sapiens, UniProt P11362); conditions: 100% no effect, 0% complete tracer displacement, read-out: Tracer bound
T23 construct: Full-length kinase ORF (Promega, Madison, WI, USA) cloned in frame with a NanoLuc-vector was transfected into HEK293T cells; host or cells: HEK293T
Experimental: as §1, §2

[24] = biological target: T24, ULK3v1 (Homo sapiens, UniProt Q6PHR2); conditions: 1 µM; 100% no effect, 0% complete tracer displacement
T24 construct: Full-length kinase ORF (Promega, Madison, WI, USA) cloned in frame with a NanoLuc-vector; host or cells: HEK293T
Experimental: as §1, §2

[25] = biological target: T25, NEK1 (Homo sapiens, UniProt Q96PY6); conditions: 100% no effect, 0% complete tracer displacement, read-out: Tracer bound
T25 construct: Full-length kinase ORF (Promega, Madison, WI, USA) cloned in frame with a NanoLuc-vector was transfected into HEK293T cells; host or cells: HEK293T
Experimental: as §1, §2

[26] = biological target: T26, MUSK (Homo sapiens, UniProt O15146); conditions: 100% no effect, 0% complete tracer displacement, read-out: Tracer bound
T26 construct: Full-length kinase ORF (Promega, Madison, WI, USA) cloned in frame with a NanoLuc-vector was transfected into HEK293T cells; host or cells: HEK293T
T26 sequence (O15146 24-869): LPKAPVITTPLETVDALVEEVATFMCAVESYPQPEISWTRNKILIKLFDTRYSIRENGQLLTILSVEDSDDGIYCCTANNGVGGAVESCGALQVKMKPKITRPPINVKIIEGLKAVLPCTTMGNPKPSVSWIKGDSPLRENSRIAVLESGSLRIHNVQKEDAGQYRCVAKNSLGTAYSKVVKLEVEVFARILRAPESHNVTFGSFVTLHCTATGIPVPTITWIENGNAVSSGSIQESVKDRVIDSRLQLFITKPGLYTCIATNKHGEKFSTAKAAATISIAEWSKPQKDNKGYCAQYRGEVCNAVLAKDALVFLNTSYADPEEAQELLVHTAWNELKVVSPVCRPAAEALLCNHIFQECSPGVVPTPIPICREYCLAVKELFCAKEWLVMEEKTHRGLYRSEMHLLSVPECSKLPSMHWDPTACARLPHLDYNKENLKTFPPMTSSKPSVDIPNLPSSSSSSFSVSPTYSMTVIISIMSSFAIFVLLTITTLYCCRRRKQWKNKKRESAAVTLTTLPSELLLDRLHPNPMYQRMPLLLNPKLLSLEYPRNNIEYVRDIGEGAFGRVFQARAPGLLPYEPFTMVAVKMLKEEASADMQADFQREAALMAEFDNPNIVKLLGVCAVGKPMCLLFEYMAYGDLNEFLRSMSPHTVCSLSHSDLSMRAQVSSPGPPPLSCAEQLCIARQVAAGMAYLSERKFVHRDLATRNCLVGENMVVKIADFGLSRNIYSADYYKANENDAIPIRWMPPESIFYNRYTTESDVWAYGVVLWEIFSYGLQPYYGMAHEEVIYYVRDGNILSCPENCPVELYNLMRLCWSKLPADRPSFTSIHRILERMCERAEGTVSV
Experimental: as §1, §2

[27] = biological target: T27, CDK2-CCNE1 (Homo sapiens, UniProt P24941); conditions: 1 µM; 100% no effect, 0% complete tracer displacement
T27 construct: Full-length kinase ORF (Promega, Madison, WI, USA) cloned in frame with a NanoLuc-vector was transfected into HEK293T cells; host or cells: HEK293T
Experimental: as §1, §2

[28] = biological target: T28, MAP4K2 (Homo sapiens, UniProt Q12851); conditions: 100% no effect, 0% complete tracer displacement, read-out: Tracer bound
T28 construct: Full-length kinase ORF (Promega, Madison, WI, USA) cloned in frame with a NanoLuc-vector was transfected into HEK293T cells; host or cells: HEK293T
Experimental: as §1, §2

[29] = biological target: T29, PAK4 (Homo sapiens, UniProt O96013); conditions: 100% no effect, 0% complete tracer displacement, read-out: Tracer bound
T29 construct: Full-length kinase ORF (Promega, Madison, WI, USA) cloned in frame with a NanoLuc-vector was transfected into HEK293T cells; host or cells: HEK293T
Experimental: as §1, §2

[30] = biological target: T30, CDK17-CCNY (Homo sapiens, UniProt Q00537); conditions: 100% no effect, 0% complete tracer displacement, read-out: Tracer bound
T30 construct: Full-length kinase ORF (Promega, Madison, WI, USA) cloned in frame with a NanoLuc-vector was transfected into HEK293T cells; host or cells: HEK293T
T30 sequence (Q00537 whole entry): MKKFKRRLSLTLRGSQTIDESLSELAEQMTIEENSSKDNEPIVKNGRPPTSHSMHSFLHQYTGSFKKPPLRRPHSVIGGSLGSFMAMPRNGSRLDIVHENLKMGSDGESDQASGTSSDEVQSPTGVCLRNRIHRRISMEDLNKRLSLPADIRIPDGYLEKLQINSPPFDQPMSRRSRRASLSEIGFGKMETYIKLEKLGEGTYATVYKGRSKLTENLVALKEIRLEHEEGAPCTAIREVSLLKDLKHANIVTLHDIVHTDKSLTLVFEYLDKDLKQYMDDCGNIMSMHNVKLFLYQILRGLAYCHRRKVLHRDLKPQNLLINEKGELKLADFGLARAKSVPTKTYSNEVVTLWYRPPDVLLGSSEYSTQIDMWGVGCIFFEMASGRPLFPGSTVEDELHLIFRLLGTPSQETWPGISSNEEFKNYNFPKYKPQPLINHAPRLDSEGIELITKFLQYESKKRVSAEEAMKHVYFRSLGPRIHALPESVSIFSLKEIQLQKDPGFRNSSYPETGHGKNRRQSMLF
T30 sequence (Q8ND76 whole entry partner): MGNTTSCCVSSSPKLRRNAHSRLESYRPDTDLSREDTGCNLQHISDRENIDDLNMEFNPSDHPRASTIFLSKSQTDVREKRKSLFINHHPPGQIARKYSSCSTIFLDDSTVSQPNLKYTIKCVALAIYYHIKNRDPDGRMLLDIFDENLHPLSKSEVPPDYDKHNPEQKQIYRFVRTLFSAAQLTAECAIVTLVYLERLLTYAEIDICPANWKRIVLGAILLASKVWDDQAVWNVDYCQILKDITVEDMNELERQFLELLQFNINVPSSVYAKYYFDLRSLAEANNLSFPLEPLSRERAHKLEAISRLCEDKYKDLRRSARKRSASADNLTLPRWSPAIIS
Experimental: as §1, §2

CNC(=O)c1cc(Oc2ccc(NC(=O)Nc3cc(C(C)(C)C)on3)cc2)ccn1 [MA68, reference compound]
Tracer bound [1]: 110.5%
remaining activity at 1 µM [2]: 15.3%
remaining activity at 1 µM [3]: 76.4%
remaining activity at 1 µM [4]: 96.3%
remaining activity at 1 µM [5]: 88.2%
remaining activity at 1 µM [6]: 107%
remaining activity at 1 µM [7]: 120%
Tracer bound [8]: 81.0%
remaining activity at 1 µM [9]: 113%
remaining activity at 1 µM [10]: 108%
remaining activity at 1 µM [11]: 111%
remaining activity at 1 µM [12]: 102%
remaining activity at 1 µM [13]: 23.6%
remaining activity at 1 µM [14]: 116%
remaining activity at 1 µM [15]: 94.4%
remaining activity at 1 µM [16]: 117%
remaining activity at 1 µM [17]: 99.6%
Tracer bound [18]: 95.1%
remaining activity at 1 µM [19]: 86.1%
remaining activity at 1 µM [20]: 106%
remaining activity at 1 µM [21]: 88.5%
remaining activity at 1 µM [22]: 87.3%
remaining activity at 1 µM [23]: 69.2%
Tracer bound [24]: 96.1%
remaining activity at 1 µM [25]: 110%
remaining activity at 1 µM [26]: 6%
Tracer bound [27]: 96.0%
remaining activity at 1 µM [28]: 107%
remaining activity at 1 µM [29]: 97.7%
remaining activity at 1 µM [30]: 13.9%
